US20260130404A1, “SWEETNESS AND TASTE IMPROVEMENT OF NON-SUCROSE SWEETENERS WITH D-SUGARS OR L-SUGARS” (The Coca-Cola Company, priority 2022, published 2026)
Like-named read-outs stand apart in the source and are kept apart here.

Tests used:
panelists [1] = test: Sensory panel paired comparison of lemon-lime beverages with Reb M; assay type: in vivo; settings: 1% in a lemon-lime matrix containing 475 ppm rebaudioside M
Experimental: (§1) The ingredients were dissolved in filtered water to constitute a syrup, then the final beverage was made by weighing the appropriate syrup amount and adding carbonated water using a ratio of 1-part syrup+5.4 parts carbonated water to target a carbonation of 3.8 volumes of CO2. Final beverages were filled in 300 ml glass bottles and served cold (4° C.). A sensory panel was provided with the D-glucose (@1%) containing beverage of Table 1 and the control shown therein. The beverages were evaluated blindly by six or seven panelists. Samples were coded and randomly presented to the panelists. Panelists were instructed to eat an unsalted cracker and rinse the mouth with water before and in between the samples. For each sample, panelists were instructed to taste, then write down their evaluation comments in paired comparison test between control and prototypes. Panelists ranked higher the sample that had higher sweet intensity, fast sweet onset, more sugar like mouthfeel, less sweet linger, less bitter and overall best tasting. […] Samples were coded and randomly presented to the panelists. Panelists were instructed to eat an unsalted cracker and rinse the mouth with water before and in between the samples. […]

human sense of taste [2] = settings: cited from earlier work
panelists [3] = test: Sensory panel paired comparison of lemon-lime beverages with Siamenoside I; assay type: in vivo; settings: 2% in a lemon-lime matrix containing 600 ppm Siamenoside I
Experimental: as §1, with “Table 4” for “Table 1”

human sense of taste [4] = settings: cited from earlier work; remark: listed apart in the source
taste panelists = settings: background statement; cited from earlier work
[5] = lowest known concentration perceivable as sweet, ppm equivalent of the mM value
[6] = lowest known concentration perceivable by the human sense of taste as sweet

Row | Compound | taste modulation (sensory testing, FIG. 1 and 2) (panelists [1]) | detection threshold concentration (human sense of taste [2]; lowest known concentration perceivable by the human sense of taste) | detection threshold concentration (human sense of taste [2]; lowest known concentration perceivable, ppm equivalent of the mM value) | taste modulation (sensory testing, FIG. 3 and 4) (panelists [3]) | sweetness recognition threshold concentration (human sense of taste [4]; [5]) | sweetness recognition threshold concentration (human sense of taste [4]; [6]) | maximal sucrose equivalence (taste panelists)
1 | O=C[C@H](O)[C@@H](O)[C@H](O)[C@H](O)CO [D-glucose] | effective taste modulator | about 13 mM | about 2342 ppm | effective taste modulator | about 7386 ppm | about 41±6 mM | 
2 | O=C[C@@H](O)[C@H](O)[C@@H](O)[C@@H](O)CO [L-glucose] | effective taste modulator |  |  | effective taste modulator | about 5765 ppm | about 32±7 mM | 
3 | C=C1C[C@@]23CC[C@H]4[C@@](C)(CCC[C@@]4(C)C(=O)O[C@@H]4O[C@H](CO)[C@@H](O)[C@H](O[C@@H]5O[C@H](CO)[C@@H](O)[C@H](O)[C@H]5O)[C@H]4O[C@@H]4O[C@H](CO)[C@@H](O)[C@H](O)[C@H]4O)[C@@H]2CC[C@]1(O[C@@H]1O[C@H](CO)[C@@H](O)[C@H](O[C@@H]2O[C@H](CO)[C@@H](O)[C@H](O)[C@H]2O)[C@H]1O[C@@H]1O[C@H](CO)[C@@H](O)[C@H](O)[C@H]1O)C3 [rebaudioside M] |  |  |  |  |  |  | greater than 10%
4 | C=C1C[C@@]23CC[C@H]4[C@@](C)(CCC[C@@]4(C)C(=O)O[C@@H]4O[C@H](CO)[C@@H](O)[C@H](O)[C@H]4O)[C@@H]2CC[C@]1(O[C@@H]1O[C@H](CO)[C@@H](O)[C@H](O[C@@H]2O[C@H](CO)[C@@H](O)[C@H](O)[C@H]2O)[C@H]1O[C@@H]1O[C@H](CO)[C@@H](O)[C@H](O)[C@H]1O)C3 [rebaudioside A] |  |  |  |  |  |  | ≤ 10%
